Assay results: patent US5886007A (priority 1997, dated 1999)
Read-outs that look alike come from different tables or passages of the source.

How the values were obtained:
[1] = target: T1, rat serum BChE (Rattus norvegicus, UniProt Q9JKC1); test: biochemical
T1 construct: rat serum was the source of BChE; from tissue; host or cells: rat serum

[2] = target: T2, rat brain AChE (Rattus norvegicus, UniProt P37136); test: biochemical
T2 construct: Rat brain homogenate prepared in 10 ml/g 10 mM Tris, pH 7.4, plus 1% Triton X-100 was used as a source of AChE; from tissue; host or cells: rat brain homogenate (10 mM Tris, pH 7.4, 1% Triton X-100)

[3] = current use of THA limited; cited from earlier work

T1 sequence (Q9JKC1 24-597): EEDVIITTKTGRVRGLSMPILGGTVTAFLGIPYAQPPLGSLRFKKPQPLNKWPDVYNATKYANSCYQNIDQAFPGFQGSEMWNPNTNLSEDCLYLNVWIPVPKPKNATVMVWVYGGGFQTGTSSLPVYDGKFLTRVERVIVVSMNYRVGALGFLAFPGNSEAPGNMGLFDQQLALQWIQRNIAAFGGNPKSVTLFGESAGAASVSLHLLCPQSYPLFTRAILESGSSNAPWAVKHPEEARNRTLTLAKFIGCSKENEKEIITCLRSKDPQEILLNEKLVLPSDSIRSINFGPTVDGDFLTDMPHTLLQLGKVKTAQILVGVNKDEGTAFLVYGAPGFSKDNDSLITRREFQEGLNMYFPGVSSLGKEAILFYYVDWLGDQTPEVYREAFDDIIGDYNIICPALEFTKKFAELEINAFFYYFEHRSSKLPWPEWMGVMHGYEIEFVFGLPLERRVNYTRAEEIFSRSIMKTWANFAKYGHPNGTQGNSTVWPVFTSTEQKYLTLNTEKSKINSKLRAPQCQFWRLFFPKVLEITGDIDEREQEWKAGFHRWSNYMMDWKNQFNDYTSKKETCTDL
T2 sequence (P37136 32-614): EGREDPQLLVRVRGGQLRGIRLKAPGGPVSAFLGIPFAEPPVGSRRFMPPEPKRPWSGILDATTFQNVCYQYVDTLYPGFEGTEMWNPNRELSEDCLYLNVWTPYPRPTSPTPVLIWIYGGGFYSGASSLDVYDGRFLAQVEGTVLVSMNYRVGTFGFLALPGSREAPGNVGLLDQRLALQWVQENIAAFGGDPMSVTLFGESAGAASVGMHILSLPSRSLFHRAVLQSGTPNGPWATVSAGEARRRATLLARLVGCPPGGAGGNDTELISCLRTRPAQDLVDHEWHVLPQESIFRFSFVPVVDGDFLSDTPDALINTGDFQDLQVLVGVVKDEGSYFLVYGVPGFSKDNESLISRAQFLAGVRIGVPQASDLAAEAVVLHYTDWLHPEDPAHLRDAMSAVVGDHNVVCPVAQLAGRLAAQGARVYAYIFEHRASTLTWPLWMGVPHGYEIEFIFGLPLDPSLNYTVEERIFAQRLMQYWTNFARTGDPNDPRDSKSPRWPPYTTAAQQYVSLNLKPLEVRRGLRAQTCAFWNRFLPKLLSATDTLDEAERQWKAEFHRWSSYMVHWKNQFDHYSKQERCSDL

SMILES	IC50 [1] [µM]	IC50 [2] [µM]	Selectivity [2]	further results
c1ccc(CCCCCCCCNc2c3c(nc4ccccc24)CCCC3)cc1 [2e, (8-Phenyl-octyl)-(1,2,3,4-tetrahydro-acridine-9-yl)-amine]	2	0.22	9.1	potency of 2e and THA relative to compound 1a against rat brain AChE [2]: weaker; potency ranking within class / chain length dependence of AChE inhibition [2]: the most potent; relative potency of 2e and THA against rat brain AChE [2]: nearly equipotent
c1ccc(CCCCNc2c3c(nc4ccccc24)CCCC3)cc1 [2a, (4-Phenyl-butyl)-(1,2,3,4-tetrahydro-acridine-9-yl)-amine]		1.5		
c1ccc(CCCCCCCCCCNc2c3c(nc4ccccc24)CCCC3)cc1 [2g, (10-Phenyl-decyl)-(1,2,3,4-tetrahydro-acridine-9-yl)-amine]		3		
c1ccc(CCCCCCCCCNc2c3c(nc4ccccc24)CCCC3)cc1 [2f, (9-Phenyl-nonyl)-(1,2,3,4-tetrahydro-acridine-9-yl)-amine]	10	3	3.3	
c1ccc2c(NCCCCCCCNc3c4c(nc5ccccc35)CCCC4)c3c(nc2c1)CCCC3 [1a, 1-7-n-Heptylene-bis-9,9'-amino-1,2,3,4-tetrahydroacridine]				times more potent than THA in inhibiting rat brain AChE [2]: 1000 times
c1ccc(CCCCCCCNc2c3c(nc4ccccc24)CCCC3)cc1 [2d, (7-Phenyl-heptyl)-(1,2,3,4-tetrahydro-acridine-9-yl)-amine]		0.36	2.8	IC50 ([1]; read-out: IC50 rat serum BChE): 1 µM
c1ccc(CCCCCCNc2c3c(nc4ccccc24)CCCC3)cc1 [2c, (6-Phenyl-hexyl)-(1,2,3,4-tetrahydro-acridine-9-yl)-amine]	0.8	0.52	1.5	
Nc1c2c(nc3ccccc13)CCCC2 [THA, 9-amino-1,2,3,4-tetrahydroacridine]				hepatoxicity [3]: serious hepatoxicity
c1ccc(CCCCCNc2c3c(nc4ccccc24)CCCC3)cc1 [2b, (5-Phenyl-pentyl)-(1,2,3,4-tetrahydro-acridine-9-yl)-amine]	0.5		0.3	IC50 ([2]; pH 7.4, read-out: IC50 rat brain AChE): 1.5 µM
c1ccc2c(NCCCCCCCCCCNc3c4c(nc5ccccc35)CCCC4)c3c(nc2c1)CCCC3 [1d, 1-10-n-Decylene-bis-9,9'-amino-1,2,3,4-tetrahydroacridine]	0.36	0.002	180.0	
c1ccc2c(NCCCCCCCCNc3c4c(nc5ccccc35)CCCC4)c3c(nc2c1)CCCC3 [1b, 1-8-n-Octylene-bis-9,9'-amino-1,2,3,4-tetrahydroacridine]	0.216	0.0005	432.0	
